From patent US20230399327A1, “HIGH ACTIVITY HPK1 KINASE INHIBITOR” (ADLAI NORTYE BIOPHARMA CO., LTD., priority 2020, published 2023)
pIC50: −log10 of the molar value.

Each compound was assayed against HPK1 kinase (Homo sapiens (Human), UniProt Q92918) (assay: HPK1 kinase activity inhibition (ADP-Glo Kinase Assay)). Details: HPK1, MBP substrate, ATP, 25° C. 60 min.
Format: biochemical
Protocol: Test Example 1: Detection of Compound's Ability to Inhibit HPK1 Kinase Activity (Method 1)
The specific operation is as follows: configure the enzymatic reaction system buffer (10 mM MOPS, pH 7.2, 5 mM β-glycerol-phosphate, 10 mM MgCl2, 0.8 mM EDTA, 2 mM EGTA, 0.1 mM DTT); the test compound (1 mM the compound stock solution in DMSO) was diluted with buffer to the highest concentration of 60 uM (containing 6% DMSO), and the compound with a concentration of 60 μM was initially diluted 5 times with a buffer containing 6% DMSO for a total of 8 points of gradient concentration; then dilute HPK1 kinase to 30 nM in buffer. Add 2 μl of HPK1 kinase diluent to each well of a Greiner 384-well microplate (Cat. No. 784075), and add 2 μl of buffer to the control well; add 1 μl of the diluted compound to the reaction well after brief centrifugation, and add 1 μl buffer solution containing 6% DMSO to the control well; after short centrifugation, place in a 25° C. constant temperature incubator (Shanghai Yiheng Scientific Instrument Co., Ltd., Cat. No.: LRH-150) and incubate for 20 minutes. Add 3 μl of reaction substrate (10 μM MBP and 20 μM ATP dissolved in distilled water) to each well, briefly centrifuge and incubate in a constant temperature incubator at 25° C. for 60 min, and use ADP-Glo Kinase Assay Kit to detect the enzymatic reaction activity, ADP-Glo Kinase Assay Kit detection is carried out according to the operating instructions of the kit. Data are described using the half maximal inhibitory concentration IC50 of the compound.

HPK1 kinase, sequence (Q92918 whole entry): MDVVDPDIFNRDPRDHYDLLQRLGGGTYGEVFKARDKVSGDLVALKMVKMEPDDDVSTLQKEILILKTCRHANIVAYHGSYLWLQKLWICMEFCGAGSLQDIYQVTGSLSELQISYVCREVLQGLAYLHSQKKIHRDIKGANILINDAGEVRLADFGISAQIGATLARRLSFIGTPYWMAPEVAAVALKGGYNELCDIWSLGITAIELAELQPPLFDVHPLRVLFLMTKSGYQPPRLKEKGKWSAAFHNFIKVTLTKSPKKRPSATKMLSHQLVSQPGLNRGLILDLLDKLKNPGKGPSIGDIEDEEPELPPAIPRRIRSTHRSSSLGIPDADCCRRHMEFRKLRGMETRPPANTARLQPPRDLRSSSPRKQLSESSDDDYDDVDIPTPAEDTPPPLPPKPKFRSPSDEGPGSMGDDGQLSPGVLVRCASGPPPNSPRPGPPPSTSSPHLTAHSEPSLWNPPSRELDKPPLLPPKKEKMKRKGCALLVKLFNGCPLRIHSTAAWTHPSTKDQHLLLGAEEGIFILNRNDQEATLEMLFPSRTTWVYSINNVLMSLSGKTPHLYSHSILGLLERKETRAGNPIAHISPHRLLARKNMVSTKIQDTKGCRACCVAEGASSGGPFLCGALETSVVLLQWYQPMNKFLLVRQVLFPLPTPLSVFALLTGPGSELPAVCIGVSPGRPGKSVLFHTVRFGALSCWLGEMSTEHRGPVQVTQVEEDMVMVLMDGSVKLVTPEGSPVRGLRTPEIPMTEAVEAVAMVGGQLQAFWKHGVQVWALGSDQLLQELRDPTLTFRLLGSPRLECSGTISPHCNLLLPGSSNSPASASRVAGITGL

| SMILES | pIC50 |
| --- | --- |
| COc1nc2c(cc1Nc1ncc3cccc(-c4cccc(Cl)n4)c3n1)CN(C)CC2 [Example 40, 8-(6-chloropyridin-2-yl)-N-(2-methoxy-6-methyl-5,6,7,8-tetrahydro-1,6-naphthyridin-3-yl)quinazolin-2-amine] | > 10.00 |
| COc1nc2c(cc1Nc1ncc3ccnc(NCC(C)(C)C)c3n1)CN(C)CC2 [Example 41, N2-(2-methoxy-6-methyl-5,6,7,8-tetrahydro-1,6-naphthyridin-3-yl)-N8-neopentylpyrido[3,4-d]pyrimidine-2,8-diamine] | > 10.00 |
| COc1nc2c(cc1Nc1ncc3ccnc(N[C@@H](C)C(C)(C)C)c3n1)CN(C)CC2 [Example 42, (S)—N8-(3,3-dimethylbut-2-yl)-N2-(2-methoxy-6-methyl-5,6,7,8-tetrahydro-1,6-naphthyridin-3-yl)pyrido[3,4-d]pyrimidine-2,8-diamine] | > 10.00 |
| COc1nc2c(cc1Nc1ncc3ccnc(-c4cc(C)nn4C)c3n1)CN(C)CC2 [Example 43, 8-(1,3-Dimethyl-1H-pyrazol-5-yl)-N-(2-methoxy-6-methyl-5,6,7,8-tetrahydro-1,6-naphthyridin-3-yl)pyrido[3,4-d]pyrimidin-2-amine] | 8.33 |
| CCOc1nc2c(cc1Nc1ncc3cccc(-c4ccccc4OC)c3n1)CN(C)CC2 [Example 44, N-(2-ethoxy-6-methyl-5,6,7,8-tetrahydro-1,6-naphthyridin-3-yl)-8-(2-methoxyphenyl)quinazolin-2-amine] | > 10.00 |
| COc1ccccc1-c1cccc2cnc(Nc3cnc4c(c3)CN(C)CC4)nc12 [Example 45, 8-(2-methoxyphenyl)-N-(6-methyl-5,6,7,8-tetrahydro-1,6-naphthyridin-3-yl)quinazolin-2-amine] | > 10.00 |
| COc1ccccc1-c1cccc2cnc(Nc3cc4c(nc3C)CCN(C)C4)nc12 [Example 46, N-(2,6-dimethyl-5,6,7,8-tetrahydro-1,6-naphthyridin-3-yl)-8-(2-methoxyphenyl)quinazoline-2-amine] | 9.82 |
| CCOc1nc2c(cc1Nc1ncc3cccc(-c4cccnc4OC)c3n1)CN(C)CC2 [Example 47, N-(2-ethoxy-6-methyl-5,6,7,8-tetrahydro-1,6-naphthyridin-3-yl)-8-(2-methoxypyridin-3-yl) quinazolin-2-amine] | 8.56 |
| COc1ncccc1-c1cccc2cnc(Nc3cc4c(nc3C)CCN(C)C4)nc12 [Example 48, N-(2,6-dimethyl-5,6,7,8-tetrahydro-1,6-naphthyridin-3-yl)-8-(2-methoxypyridin-3-yl)quinazolin-2-amine] | 8.71 |
| CN1CCc2[nH]c(=O)c(Nc3ncc4ccnc(N5CCOCC5)c4n3)cc2C1 [Example 49, 6-methyl-3-((8-morpholinopyrido[3,4-d]pyrimidin-2-yl)amino)-5,6,7,8-tetrahydro-1,6-naphthyridine-2(1H)-one] | 7.57 |
| CCOc1nc2c(cc1Nc1ncc3ccnc(NCC(C)(C)C)c3n1)CN(C)CC2 [Example 52, N2-(2-ethoxy-6-methyl-5,6,7,8-tetrahydro-1,6-naphthyridin-3-yl)-N8-neopentylpyrido[3,4-d]pyrimidine-2,8-diamine] | > 10.00 |
| COc1nc2c(cc1Nc1ncc3cccc(-c4cnn(C)c4C)c3n1)CN(C)CC2 [Example 53, 8-(1,5-dimethyl-1H-pyrazol-4-yl)-N-(2-methoxy-6-methyl-5,6,7,8-tetrahydro-1,6-Naphthyridin-3-yl)quinazolin-2-amine] | > 10.00 |
| CCOc1nc2c(cc1Nc1ncc3cccc(-c4ccc(=O)n(C)c4)c3n1)CN(C)CC2 [Example 54, 5-(2-((2-ethoxy-6-methyl-5,6,7,8-tetrahydro-1,6-naphthyridin-3-yl)amino)quinazolin-8-yl)-1-methylpyridin-2(1H)-one] | 7.66 |
| CCOc1nc2c(cc1Nc1ncc3cccc(-c4cnn(C)c4C)c3n1)CN(C)CC2 [Example 55, 8-(1,5-dimethyl-1H-pyrazol-4-yl)-N-(2-ethoxy-6-methyl-5,6,7,8-tetrahydro-1,6-naphthyridin-3-yl)quinazolin-2-amine] | 9.18 |
| CCOc1nc2c(cc1Nc1ncc3ccnc(N[C@@H](CO)C(C)(C)C)c3n1)CN(C)CC2 [Example 57, (R)-2-((2-((2-ethoxy-6-methyl-5,6,7,8-tetrahydro-1,6-naphthyridin-3-yl)amino)pyrido[3,4-d]pyrimidin-8-yl)amino)-3,3-dimethylbutan-1-ol] | 9.60 |
| CCOc1nc2c(cc1Nc1ncc3ccnc(N[C@H](C)C(C)(C)C)c3n1)CN(C)CC2 [Example 58, (R)—N8-(3,3-dimethylbut-2-yl)-N2-(2-ethoxy-6-methyl-5,6,7,8-tetrahydro-1,6-Naphthyridin-3-yl)pyrido[3,4-d]pyrimidine-2,8-diamine] | > 10.00 |

| SMILES | pIC50 |
| --- | --- |
| COc1nc2c(cc1Nc1ncc3cccc(Cc4ccccc4)c3n1)CN(C)CC2 [Example 59, 8-benzyl-N-(2-methoxy-6-methyl-5,6,7,8-tetrahydro-1,6-naphthyridin-3-yl)quinazolin-2-amine] | > 10.00 |
| Cc1c(-c2cccc3cnc(Nc4cc5c([nH]c4=O)CCN(C)C5)nc23)cnn1C [Example 61, 3-((8-(1,5-dimethyl-1H-pyrazol-4-yl)quinazolin-2-yl)amino)-6-methyl-5,6,7,8-tetrahydro-1,6-naphthyridin-2(1H)-one] | > 10.00 |
| COc1ccccc1-c1nccc2cnc(Nc3cc4c([nH]c3=O)CCN(C)C4)nc12 [Example 62, 3-((8-(2-methoxyphenyl)pyrido[3,4-d]pyrimidin-2-yl)amino)-6-methyl-5,6,7,8-tetrahydro-1,6-naphthyridin-2(1H)-one] | 7.64 |
| CN1CCc2[nH]c(=O)c(Nc3ncc4ccnc(N5CCCCC5)c4n3)cc2C1 [Example 63, 6-methyl-3-((8-(piperidin-1-yl)pyrido[3,4-d]pyrimidin-2-yl)amino)-5,6,7,8-tetrahydro-1,6-naphthyridin-2(1H)-one] | 7.50 |
| CN1CCc2[nH]c(=O)c(Nc3ncc4ccnc(NCC(C)(C)C)c4n3)cc2C1 [Example 64, 6-methyl-3-((8-(neopentylamino)pyrido[3,4-d]pyrimidin-2-yl)amino)-5,6,7,8-tetrahydro-1,6-naphthyridin-2(1H)-one] | > 10.00 |
| CCOc1nc2c(cc1Nc1ncc3ccnc(N4CC(C)(C)C4)c3n1)CN(C)CC2 [Example 65, 8-(3,3-dimethylazetidin-1-yl)-N-(2-ethoxy-6-methyl-5,6,7,8-tetrahydro-1,6-Naphthyridin-3-yl)pyrido[3,4-d]pyrimidin-2-amine] | 7.70 |
| CCOc1nc2c(cc1Nc1ncc3cccc(-c4c(C)nn(C)c4C)c3n1)CN(C)CC2 [Example 67, N-(2-ethoxy-6-methyl-5,6,7,8-tetrahydro-1,6-naphthyridin-3-yl)-8-(1,3,5-trimethyl-1H-pyrazol-4-yl)quinazolin-2-amine] | 7.63 |
| CN1CCc2c(cc(Nc3ncc4ccnc(N5CCCCC5)c4n3)c(=O)n2C)C1 [Example 68, 1,6-dimethyl-3-((8-(piperidin-1-yl)pyrido[3,4-d]pyrimidin-2-yl)amino)-5,6,7,8-tetrahydro-1,6-naphthyridin-2(1H)-one] | 8.83 |
| CN1CCc2c(cc(Nc3ncc4ccnc(N5CCOCC5)c4n3)c(=O)n2C)C1 [Example 69, 1,6-dimethyl-3-((8-morpholinopyrido[3,4-d]pyrimidin-2-yl)amino)-5,6,7,8-tetrahydro-1,6-naphthyridin-2(1H)-one] | 8.66 |
| CN1CCc2[nH]c(=O)c(Nc3ncc4ccnc(N5CCC(F)(F)CC5)c4n3)cc2C1 [Example 74, 3-((8-(4,4-difluoropiperidin-1-yl)pyrido[3,4-d]pyrimidin-2-yl)amino)-6-methyl-5,6,7,8-tetrahydro-1,6-naphthyridin-2(1H)-one] | 7.80 |
| CN1CCc2[nH]c(=O)c(Nc3ncc4ccnc(C5=CCCCC5)c4n3)cc2C1 [Example 75, 3-((8-(cyclohex-1-en-1-yl)pyrido[3,4-d]pyrimidin-2-yl)amino)-6-methyl-5,6,7,8-tetra hydro-1,6-naphthyridin-2(1H)-one] | > 10.00 |
| CN1CCc2c(cc(Nc3ncc4ccnc(N5CCCCCC5)c4n3)c(=O)n2C)C1 [Example 80, 3-((8-(azepan-1-yl)pyrido[3,4-d]pyrimidin-2-yl)amino)-1,6-dimethyl-5,6,7,8-tetrahydro-1,6-naphthyridin-2(1H)-one] | 9.21 |
| CN1CCc2c(cc(Nc3ncc4ccnc(C5=CCCCC5)c4n3)c(=O)n2C)C1 [Example 81, 3-((8-(cyclohex-1-en-1-yl)pyrido[3,4-d]pyrimidin-2-yl)amino)-1,6-dimethyl-5,6,7,8-tetrahydro-1,6-naphthyridin-2(1H)-one] | 9.64 |
| Cn1c2c(cc(Nc3ncc4ccnc(N5CCC(F)(F)CC5)c4n3)c1=O)CN(CCO)CC2 [Example 82, 3-((8-(4,4-difluoropiperidin-1-yl)pyrido[3,4-d]pyrimidin-2-yl)amino)-6-(2-hydroxyethyl)-1-methyl-5,6,7,8-tetrahydro-1,6-naphthyridin-2(1H)-one] | > 10.00 |
| Cn1c2c(cc(Nc3ncc4ccnc(N5CCCCC5)c4n3)c1=O)CN(CCO)CC2 [Example 83, 6-(2-hydroxyethyl)-1-methyl-3-((8-(piperidin-1-yl)pyrido[3,4-d]pyrimidin-2-yl)amino)-5,6,7,8-tetrahydro-1,6-naphthyridin-2(1H)-one] | 9.80 |
